Values quoted from earlier work, collected in patent publication US20110275602A1, “PHARMACEUTICAL ASSOCIATION, COMPOSITIONS FOR TOPICAL USE, FORMS OF DOSAGE AND METHOD OF TREATMENT OF ACUTE OR CHRONIC OTITIS IN PET ANIMALS” (priority 2007, published 2011).

Test system: acute external otitis
Settings: humans; literature

**Q.** With O=C(O)c1cn(C2CC2)c2cc(N3CCNCC3)c(F)cc2c1=O [ciprofloxacin] as the molecule, how does the “efficacy for the treatment of acute external otitis” value read?
**A.** 77%
